Experimental data reported in patent publication US20260242353A1, “HETEROARYL DERIVATIVES AS DDRs INHIBITORS” (CHIESI FARMACEUTICI S.P.A., priority 2022, published 2026).

Key:
[1] = target: T1, DDR2 (Homo sapiens, UniProt Q16832); experiment: LanthaScreen Europium Kinase Binding assay, DDR2; conditions: 5 nM DDR2, 10 nM Kinase Tracer 178, 1 h at rt; Ki from IC50 by Cheng-Prusoff; read-out: Ki DDR2
T1 construct: purchased Life Technologies
T1 sequence (Q16832 22-855): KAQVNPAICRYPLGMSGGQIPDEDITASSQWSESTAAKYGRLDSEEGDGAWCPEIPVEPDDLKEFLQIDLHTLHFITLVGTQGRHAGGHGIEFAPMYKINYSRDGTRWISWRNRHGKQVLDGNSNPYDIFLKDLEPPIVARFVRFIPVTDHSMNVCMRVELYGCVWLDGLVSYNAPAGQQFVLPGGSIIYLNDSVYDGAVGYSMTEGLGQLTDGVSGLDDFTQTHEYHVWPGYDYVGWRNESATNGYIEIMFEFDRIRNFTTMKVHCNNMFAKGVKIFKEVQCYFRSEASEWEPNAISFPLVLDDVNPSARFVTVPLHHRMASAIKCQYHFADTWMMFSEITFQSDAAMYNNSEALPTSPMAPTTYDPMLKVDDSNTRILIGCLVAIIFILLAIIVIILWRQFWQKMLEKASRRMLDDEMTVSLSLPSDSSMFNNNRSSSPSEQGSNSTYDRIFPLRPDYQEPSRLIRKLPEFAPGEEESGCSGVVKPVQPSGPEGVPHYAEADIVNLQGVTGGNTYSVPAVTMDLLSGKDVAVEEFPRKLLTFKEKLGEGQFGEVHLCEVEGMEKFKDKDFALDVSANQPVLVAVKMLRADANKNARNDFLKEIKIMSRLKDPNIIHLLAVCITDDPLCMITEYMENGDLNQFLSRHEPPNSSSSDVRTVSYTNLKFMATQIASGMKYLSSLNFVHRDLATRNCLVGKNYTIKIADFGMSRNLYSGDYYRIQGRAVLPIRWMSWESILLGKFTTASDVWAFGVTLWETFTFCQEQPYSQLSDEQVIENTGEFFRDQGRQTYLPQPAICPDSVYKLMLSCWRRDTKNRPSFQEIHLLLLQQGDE
Method in brief: (§1)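 Compounds were incubated 1 h at rt with 5 nM DDR1 plus 20 nM Kinase Tracer 178, or 5 nM DDR2 plus 10 nM tracer, and 2 nM Eu anti-GST antibody in HEPES pH 7.5 buffer. Read-out was the TR-FRET 665/615 nm ratio. IC50 came from a 4-parameter fit and was converted to Ki by Cheng-Prusoff.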

[2] = target: T2, DDR1 (Homo sapiens, UniProt Q08345); experiment: LanthaScreen Europium Kinase Binding assay, DDR1; conditions: 5 nM DDR1, 20 nM Kinase Tracer 178, 1 h at rt; Ki from IC50 by Cheng-Prusoff; read-out: Ki DDR1
T2 construct: purchased Carna Biosciences
Method in brief: as §1

T2 sequence (Q08345 19-913): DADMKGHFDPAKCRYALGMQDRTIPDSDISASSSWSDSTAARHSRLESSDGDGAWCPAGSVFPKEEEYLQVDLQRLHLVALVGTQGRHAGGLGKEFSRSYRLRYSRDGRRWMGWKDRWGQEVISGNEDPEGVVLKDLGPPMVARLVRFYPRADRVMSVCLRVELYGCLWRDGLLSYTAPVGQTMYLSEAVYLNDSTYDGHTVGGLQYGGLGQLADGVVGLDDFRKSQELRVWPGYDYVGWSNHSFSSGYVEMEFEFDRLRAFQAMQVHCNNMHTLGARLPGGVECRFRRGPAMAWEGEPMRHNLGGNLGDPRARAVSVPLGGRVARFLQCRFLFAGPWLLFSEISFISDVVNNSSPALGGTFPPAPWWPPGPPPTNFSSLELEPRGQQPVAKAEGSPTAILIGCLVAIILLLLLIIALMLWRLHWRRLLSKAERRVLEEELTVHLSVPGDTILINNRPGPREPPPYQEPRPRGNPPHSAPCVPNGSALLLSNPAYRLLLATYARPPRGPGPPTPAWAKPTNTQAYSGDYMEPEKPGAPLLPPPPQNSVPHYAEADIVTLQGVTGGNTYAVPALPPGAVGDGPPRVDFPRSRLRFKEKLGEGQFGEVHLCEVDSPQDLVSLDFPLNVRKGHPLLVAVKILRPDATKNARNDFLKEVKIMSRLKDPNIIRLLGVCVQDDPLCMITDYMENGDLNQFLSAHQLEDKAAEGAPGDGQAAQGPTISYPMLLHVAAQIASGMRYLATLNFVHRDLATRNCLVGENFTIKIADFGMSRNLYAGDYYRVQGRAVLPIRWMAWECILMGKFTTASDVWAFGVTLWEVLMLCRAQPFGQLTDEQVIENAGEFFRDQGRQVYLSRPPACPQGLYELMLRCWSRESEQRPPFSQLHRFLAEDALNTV

Row | Ki [1] [nM] | Ki [2] [nM] | SMILES
1 | 5 to 25 | 5 to 25 | Cc1ccc(C(=O)Nc2cncc(C(F)(F)F)c2)cc1[C@@H]1CCN(c2ncnc3cc(Br)sc23)C1 [Example 125, (S)-3-(1-(6-bromothieno[3,2-d]pyrimidin-4-yl)pyrrolidin-3-yl)-4-methyl-N-(5-(trifluoromethyl)pyridin-3-yl)benzamide]
2 | < 5 | < 5 | CCc1cc(NC(=O)c2ccc(C)c([C@@H]3CCN(c4cnccc4C#N)C3)c2)no1 [Example 56, (S)-3-(1-(4-cyanopyridin-3-yl)pyrrolidin-3-yl)-N-(5-ethylisoxazol-3-yl)-4-methylbenzamide]
3 | 5 to 25 | < 5 | COc1ccc(C(=O)Nc2cncc(C(F)(F)F)c2)cc1C1CCN(c2cnn3cccnc23)C1 (stereo not shown) [Example 112, 4-methoxy-3-(1-(pyrazolo[1,5-a]pyrimidin-3-yl)pyrrolidin-3-yl)-N-(5-(trifluoromethyl)pyridin-3-yl)benzamide]
4 | 5 to 25 | < 5 | Cc1ccc(C(=O)Nc2cncc(C(F)(F)F)c2)cc1[C@@H]1CCN(c2nccn3cncc23)C1 [Example 128, (S)-3-(1-(imidazo[1,5-a]pyrazin-8-yl)pyrrolidin-3-yl)-4-methyl-N-(5-(trifluoromethyl)pyridin-3-yl)benzamide]
5 | < 5 | < 5 | CCc1cc(NC(=O)c2ccc(C)c([C@@H]3CCN(c4cnn5ccncc45)C3)c2)no1 [Example 96, (S)-N-(5-ethylisoxazol-3-yl)-4-methyl-3-(1-(pyrazolo[1,5-a]pyrazin-3-yl)pyrrolidin-3-yl)benzamide]
6 | < 5 | < 5 | Cc1ccc(C(=O)Nc2cncc(C(F)(F)F)c2)cc1[C@@H]1CCN(c2cnc3ccc(C#N)cn23)C1 [Example 78, (S)-3-(1-(6-cyanoimidazo[1,2-a]pyridin-3-yl)pyrrolidin-3-yl)-4-methyl-N-(5-(trifluoromethyl)pyridin-3-yl)benzamide]
7 | < 5 | < 5 | Cc1ccc(C(=O)Nc2cncc(C(F)(F)F)c2)cc1[C@@H]1CCN(c2cccnc2N)C1 [Example 42, (S)-3-(1-(2-aminopyridin-3-yl)pyrrolidin-3-yl)-4-methyl-N-(5-(trifluoromethyl)pyridin-3-yl)benzamide]
8 | 5 to 25 | < 5 | Cc1ccc(C(=O)Nc2cncc(C(F)(F)F)c2)cc1[C@@H]1CN(c2cncnc2)C[C@H]1CO (racemic) [Example 104, 3-((3R,4S)-3-(4-(hydroxymethyl)-1-(pyrimidin-5-yl)pyrrolidin-3-yl)-4-methyl-N-(5-(trifluoromethyl)pyridin-3-yl)benzamide and 3-((3S,4R)-3-(4-(hydroxymethyl)-1-(pyrimidin-5-yl)pyrrolidin-3-yl)-4-methyl-N-(5-(trifluoromethyl)pyridin-3-yl)benzamide]
9 | < 5 | < 5 | O=C(Nc1cncc(C(F)(F)F)c1)c1ccc(OC(F)F)c(C2CCN(c3cncnc3)C2)c1 (single isomer, unassigned) [Example 117, 4-(difluoromethoxy)-3-(1-(pyrimidin-5-yl)pyrrolidin-3-yl)-N-(5-(trifluoromethyl)pyridin-3-yl)benzamide]
10 | 5 to 25 | < 5 | Cc1ccc(C(=O)Nc2cncc(C(F)(F)F)c2)cc1[C@@H]1CCN(c2cnn3ccccc23)C1 [Example 34, (S)-4-methyl-3-(1-(pyrazolo[1,5-a]pyridin-3-yl)pyrrolidin-3-yl)-N-(5-(trifluoromethyl)pyridin-3-yl)benzamide]
11 | 5 to 25 | < 5 | COc1ccc(C(=O)Nc2cncc(C(F)(F)F)c2)cc1C1CCN(c2cncnc2)C1 (single isomer, unassigned) [Example 110, 4-methoxy-3-(1-(pyrimidin-5-yl)pyrrolidin-3-yl)-N-(5-(trifluoromethyl)pyridin-3-yl)benzamide]
